Laboratory results from US20260285875A1, “INHIBITORS OF PARG” (858 Therapeutics, Inc., priority 2023, published 2026).

Target: T1, cellular PARG (Homo sapiens, UniProt Q86W56)
T1 construct: endogenous in cells; host or cells: HeLa
Test: Nuclear PAR accumulation assay (immunofluorescence high-content imaging, MMS-treated HeLa cells)
Assay type: cell-based
Details: 1 hour compound then MMS 50 μg/mL for an additional hour
Outline: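 HeLa cells pretreated with compound for 1 h at 37° C, then given 50 μg/mL MMS for another hour. After methanol fixation, PAR was immunostained with DAPI nuclear counterstain; per-nucleus intensity and percent PAR-positive cells were imaged at 20× (≥1,000 cells/well). IC50 from four-parameter logistic fit.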

T1 sequence (Q86W56 whole entry): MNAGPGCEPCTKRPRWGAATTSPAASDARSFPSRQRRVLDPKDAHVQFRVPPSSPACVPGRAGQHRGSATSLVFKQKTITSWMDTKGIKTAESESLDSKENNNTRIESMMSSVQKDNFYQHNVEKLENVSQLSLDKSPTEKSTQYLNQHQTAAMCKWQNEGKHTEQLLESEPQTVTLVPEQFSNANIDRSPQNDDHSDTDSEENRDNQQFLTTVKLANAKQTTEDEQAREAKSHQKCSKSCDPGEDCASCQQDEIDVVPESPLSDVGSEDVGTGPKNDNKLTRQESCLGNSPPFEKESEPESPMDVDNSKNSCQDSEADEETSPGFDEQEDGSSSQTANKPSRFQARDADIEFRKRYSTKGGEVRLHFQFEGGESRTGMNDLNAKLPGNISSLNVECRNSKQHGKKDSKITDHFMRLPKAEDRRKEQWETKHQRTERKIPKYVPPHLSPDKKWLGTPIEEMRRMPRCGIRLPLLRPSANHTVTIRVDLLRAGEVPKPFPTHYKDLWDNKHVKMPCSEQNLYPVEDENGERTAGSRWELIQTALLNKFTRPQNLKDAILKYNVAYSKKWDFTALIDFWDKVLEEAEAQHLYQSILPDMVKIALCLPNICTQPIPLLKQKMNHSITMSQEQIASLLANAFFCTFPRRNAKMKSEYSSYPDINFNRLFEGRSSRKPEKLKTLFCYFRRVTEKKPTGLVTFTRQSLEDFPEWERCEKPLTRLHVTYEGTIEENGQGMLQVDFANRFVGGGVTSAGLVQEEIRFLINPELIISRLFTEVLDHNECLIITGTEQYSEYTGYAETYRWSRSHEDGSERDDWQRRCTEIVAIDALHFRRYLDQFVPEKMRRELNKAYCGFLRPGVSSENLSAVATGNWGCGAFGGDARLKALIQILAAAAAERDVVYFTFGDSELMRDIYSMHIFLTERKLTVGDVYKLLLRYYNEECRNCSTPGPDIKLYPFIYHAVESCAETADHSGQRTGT

SMILES	IC50
CN1C(=O)c2cc(S(=O)(=O)NC3(C)CC3)ccc2N2C1=NCC2C#Cc1cnc2cc(C(F)(F)F)cnn12 (centres unmarked) [Example 209, 4-methyl-N-(1-methylcyclopropyl)-5-oxo-1-((7-(trifluoromethyl)imidazo[1,2-b]pyridazin-3-yl)ethynyl)-1,2,4,5-tetrahydroimidazo[1,2-a]quinazoline-7-sulfonamide]	< 100 nM
Cn1cc(CN2C(=O)c3cc(S(=O)(=O)NC4(C)CC4)cc(Br)c3N3CCN=C23)cn1 [Example 18, 9-bromo-4-((1-methyl-1H-pyrazol-4-yl)methyl)-N-(1-methylcyclopropyl)-5-oxo-1,2,4,5-tetrahydroimidazo[1,2-a]quinazoline-7-sulfonamide]	100 to 1000 nM
[2H]C([2H])(c1cnn(C)c1)N1C(=O)c2cc(S(=O)(=O)NC3(C)CC3)c(F)cc2N2C1=NC[C@H]2C#C [Example 289, (R)-1-ethynyl-8-fluoro-4-((1-methyl-1H-pyrazol-4-yl)methyl-d2)-N-(1-methylcyclopropyl)-5-oxo-1,2,4,5-tetrahydroimidazo[1,2-a]quinazoline-7-sulfonamide]	< 100 nM
C[C@@H]1CN=C2N(CCCO)C(=O)c3cc(S(=O)(=O)NC4(C)CC4)ccc3N21 [Example 64, (R)-4-(3-hydroxypropyl)-1-methyl-N-(1-methylcyclopropyl)-5-oxo-1,2,4,5-tetrahydroimidazo[1,2-a]quinazoline-7-sulfonamide]	1000 to 10000 nM
[2H]C([2H])(c1cnn(C)c1)N1C(=O)c2cc(S(=O)(=O)NC3(C)CC3)cc(Br)c2N2C1=NC[C@H]2C#C [Example 98, (R)-9-bromo-1-ethynyl-4-((1-methyl-1H-pyrazol-4-yl)methyl-d2)-N-(1-methylcyclopropyl)-5-oxo-1,2,4,5-tetrahydroimidazo[1,2-a]quinazoline-7-sulfonamide]	< 100 nM
Cn1cc(CN2C(=O)c3cc(S(=O)(=O)NC4(C)CC4)ccc3N3C2=N[C@H]2CCOC[C@H]23)cn1 [Example 157, (7aS,1laS)-6-((1-methyl-1H-pyrazol-4-yl)methyl)-N-(1-methylcyclopropyl)-5-oxo-6,7a,8,9,11,11a-hexahydro-5H-pyrano[4′,3′:4,5]imidazo[1,2-a]quinazoline-3-sulfonamide]	< 100 nM
C[C@@H]1CN=C2N(CC#Cc3ccc(F)nc3)C(=O)c3cc(S(=O)(=O)NC4(C)CC4)ccc3N21 [Example 278, (R)-4-(3-(6-fluoropyridin-3-yl)prop-2-yn-1-yl)-1-methyl-N-(1-methylcyclopropyl)-5-oxo-1,2,4,5-tetrahydroimidazo[1,2-a]quinazoline-7-sulfonamide]	100 to 1000 nM
C[C@@H]1CN=C2N(Cc3cnn(C)c3)C(=O)c3cc(S(=O)(=O)NC4(C)CC4)cc(-c4ccc(F)cn4)c3N21 [Example 6, (R)-9-(5-fluoropyridin-2-yl)-1-methyl-4-((1-methyl-1H-pyrazol-4-yl)methyl)-N-(1-methylcyclopropyl)-5-oxo-1,2,4,5-tetrahydroimidazo[1,2-a]quinazoline-7-sulfonamide]	< 100 nM
Cc1cc(F)ccc1-c1cc(S(=O)(=O)NC2(C)CC2)cc2c1N1C(=NC[C@H]1C)N(Cc1cnn(C)c1)C2=O [Example 32, (R)-9-(4-fluoro-2-methylphenyl)-1-methyl-4-((1-methyl-1H-pyrazol-4-yl)methyl)-N-(1-methylcyclopropyl)-5-oxo-1,2,4,5-tetrahydroimidazo[1,2-a]quinazoline-7-sulfonamide]	< 100 nM
C=Cc1ccc(CN2C(=O)c3cc(S(=O)(=O)NC4(C)CC4)ccc3N3C2=NC[C@H]3C)cn1 [Example 254, (R)-1-methyl-N-(1-methylcyclopropyl)-5-oxo-4-((6-vinylpyridin-3-yl)methyl)-1,2,4,5-tetrahydroimidazo[1,2-a]quinazoline-7-sulfonamide]	100 to 1000 nM
Cn1cc(CN2C(=O)c3cc(S(=O)(=O)NC4(C)CC4)cc(-c4ccc(F)cc4)c3N3CC(C)(C)N=C23)cn1 [Example 17, 9-(4-fluorophenyl)-2,2-dimethyl-4-((1-methyl-1H-pyrazol-4-yl)methyl)-N-(1-methylcyclopropyl)-5-oxo-1,2,4,5-tetrahydroimidazo[1,2-a]quinazoline-7-sulfonamide]	< 100 nM
Cn1cc(CN2C(=O)c3cc(S(=O)(=O)NC4(C)CC4)ccc3N3C2=N[C@H]2CNCC[C@H]23)cn1 [Example 159, (7aS,11aR)-6-((1-methyl-1H-pyrazol-4-yl)methyl)-N-(1-methylcyclopropyl)-5-oxo-5,6,7a,8,9,10,11,11a-octahydropyrido[3′,4′:4,5]imidazo[1,2-a]quinazoline-3-sulfonamide]	1000 to 10000 nM

Results, then the compound that gave them:

IC50	SMILES
< 100 nM	Cn1cc(CN2C(=O)c3cc(S(=O)(=O)NC4(C)CC4)ccc3N3C2=NC[C@H]3C#Cc2nccn2C)cn1 [Example 83, (R)-1-((1-methyl-1H-imidazol-2-yl)ethynyl)-4-((1-methyl-1H-pyrazol-4-yl)methyl)-N-(1-methylcyclopropyl)-5-oxo-1,2,4,5-tetrahydroimidazo[1,2-a]quinazoline-7-sulfonamide]
< 100 nM	Cc1ccc2ncc(C#C[C@@H]3CN=C4N(C)C(=O)c5cc(S(=O)(=O)NC6(C)CC6)ccc5N43)n2n1 [Example 183, (R)-4-methyl-N-(1-methylcyclopropyl)-1-((6-methylimidazo[1,2-b]pyridazin-3-yl)ethynyl)-5-oxo-1,2,4,5-tetrahydroimidazo[1,2-a]quinazoline-7-sulfonamide]
< 100 nM	[2H]C([2H])(c1cnn(C)c1)N1C(=O)c2cc(S(=O)(=O)NC3(C)CC3)ccc2N2C1=NC[C@H]2C#Cc1cncc(N(C)C)c1 [Example 253, (R)-1-((5-(dimethylamino)pyridin-3-yl)ethynyl)-4-((1-methyl-1H-pyrazol-4-yl)methyl-d2)-N-(1-methylcyclopropyl)-5-oxo-1,2,4,5-tetrahydroimidazo[1,2-a]quinazoline-7-sulfonamide]
< 100 nM	C#CC1(C)CN=C2N(Cc3cnn(C)c3)C(=O)c3cc(S(=O)(=O)NC4(C)CC4)ccc3N21 (single isomer, unassigned) [Example 271, 1-ethynyl-1-methyl-4-((1-methyl-1H-pyrazol-4-yl)methyl)-N-(1-methylcyclopropyl)-5-oxo-1,2,4,5-tetrahydroimidazo[1,2-a]quinazoline-7-sulfonamide]
< 100 nM	Cn1cc(CN2C(=O)c3cc(S(=O)(=O)NC4(C)CC4)ccc3N3C2=NC[C@H]3C#Cc2ncccn2)cn1 [Example 68, (R)-4-((1-methyl-1H-pyrazol-4-yl)methyl)-N-(1-methylcyclopropyl)-5-oxo-1-(pyrimidin-2-ylethynyl)-1,2,4,5-tetrahydroimidazo[1,2-a]quinazoline-7-sulfonamide]
< 100 nM	Cn1cc(CN2C(=O)c3cc(S(=O)(=O)NC4(C)CC4)ccc3N3C2=NC[C@H]3C#Cc2ncn(C)n2)cn1 [Example 66, (R)-1-((1-methyl-1H-1,2,4-triazol-3-yl)ethynyl)-4-((1-methyl-1H-pyrazol-4-yl)methyl)-N-(1-methylcyclopropyl)-5-oxo-1,2,4,5-tetrahydroimidazo[1,2-a]quinazoline-7-sulfonamide]
< 100 nM	CN1C(=O)c2cc(S(=O)(=O)NC3(C)CC3)ccc2N2C1=NC[C@H]2C#Cc1cnc2cccnn12 [Example 149, (R)-1-(imidazo[1,2-b]pyridazin-3-ylethynyl)-4-methyl-N-(1-methylcyclopropyl)-5-oxo-1,2,4,5-tetrahydroimidazo[1,2-a]quinazoline-7-sulfonamide]
< 100 nM	Cn1cc(CN2C(=O)c3cc(S(=O)(=O)NC4(C)CC4)ccc3N3C2=NC[C@H]3C#Cc2ccnn2C)cn1 [Example 165, (R)-4-((1-methyl-1H-pyrazol-4-yl)methyl)-1-((1-methyl-1H-pyrazol-5-yl)ethynyl)-N-(1-methylcyclopropyl)-5-oxo-1,2,4,5-tetrahydroimidazo[1,2-a]quinazoline-7-sulfonamide]
< 100 nM	[2H]C([2H])(c1cnn(C)c1)N1C(=O)c2cc(S(=O)(=O)NC3(C)CC3)ccc2N2C1=NC[C@H]2C#Cc1cncc(OC)c1 [Example 269, (R)-1-((5-methoxypyridin-3-yl)ethynyl)-4-((1-methyl-1H-pyrazol-4-yl)methyl-d2)-N-(1-methylcyclopropyl)-5-oxo-1,2,4,5-tetrahydroimidazo[1,2-a]quinazoline-7-sulfonamide]
< 100 nM	CN1C(=O)c2cc(S(=O)(=O)NC3(C)CC3)ccc2N2C1=NC[C@H]2C#Cc1cnn(C)c(=O)c1 [Example 199, (R)-4-methyl-1-((1-methyl-6-oxo-1,6-dihydropyridazin-4-yl)ethynyl)-N-(1-methylcyclopropyl)-5-oxo-1,2,4,5-tetrahydroimidazo[1,2-a]quinazoline-7-sulfonamide]
100 to 1000 nM	Cn1cc(CN2C(=O)c3cc(S(=O)(=O)NC4(C)CC4)ccc3N3C2=NC[C@@H]3C2CCCC2)cn1 [Example 93, (S)-1-cyclopentyl-4-((1-methyl-1H-pyrazol-4-yl)methyl)-N-(1-methylcyclopropyl)-5-oxo-1,2,4,5-tetrahydroimidazo[1,2-a]quinazoline-7-sulfonamide]
< 100 nM	Cn1cc(CN2C(=O)c3cc(S(=O)(=O)NC4(C)CC4)ccc3N3C2=NC[C@H]3C#CC(F)F)cn1 [Example 99, (R)-1-(3,3-difluoroprop-1-yn-1-yl)-4-((1-methyl-1H-pyrazol-4-yl)methyl)-N-(1-methylcyclopropyl)-5-oxo-1,2,4,5-tetrahydroimidazo[1,2-a]quinazoline-7-sulfonamide]
< 100 nM	Cn1cc(CN2C(=O)c3cc(S(=O)(=O)NC4(C)CC4)ccc3N3C2=NC[C@H]3COc2ccc(F)cc2)cn1 [Example 29, (S)-1-((4-fluorophenoxy)methyl)-4-((1-methyl-1H-pyrazol-4-yl)methyl)-N-(1-methylcyclopropyl)-5-oxo-1,2,4,5-tetrahydroimidazo[1,2-a]quinazoline-7-sulfonamide]
< 100 nM	Cn1cc(CN2C(=O)c3cc(S(=O)(=O)NC4(C)CC4)ccc3N3C2=NCC3COc2cccc(C#N)c2)cn1 (centres unmarked) [Example 136, 1-((3-cyanophenoxy)methyl)-4-((1-methyl-1H-pyrazol-4-yl)methyl)-N-(1-methylcyclopropyl)-5-oxo-1,2,4,5-tetrahydroimidazo[1,2-a]quinazoline-7-sulfonamide]
